According to article PMC13266999, “Designing Antibiotics with Inherent Resistance to Efflux as a Strategy to Revive Discovery against Multidrug-Resistant Pathogens” (Journal of Medicinal Chemistry, 2026):
In brackets after ≈: the same amount, converted by molar mass. Several values for one entry are separate records, joined by “and”; a condition that tells them apart may be missing. Identical values can stand only once. Like-named read-outs stand apart in the source and are kept apart here.

Key:
CYP2B6 = CYP2B6 (Homo sapiens, UniProt P20813); assay: CYP inhibition; settings: HLM, bupropion substrate
Procedure: (§2) Cytochrome P450 inhibition was assessed in vitro using human recombinant enzymes in microsomal preparations. […] Enzyme activity was quantified by monitoring formation of substrate-specific metabolites, and percent inhibition was calculated relative to vehicle control.

AR (h) = assay: SafetyScreen44; design: species or system human; settings: agonist radioligand, specific binding, 1.0E-05 M
Procedure: (§1) Off-target pharmacology was evaluated using the Eurofins SafetyScreen44 in vitro panel. […] Binding assays were performed using radioligand displacement, and enzyme or uptake assays measured inhibition of control activity using validated detection methods (scintillation counting, fluorimetry or photometry). Responses were expressed as percent inhibition of control binding or activity. Based on Eurofins interpretation guidelines, effects ≥50% were considered significant, effects between 25% and 50% weak to moderate, and effects <25% were not considered biologically relevant.

WT E. coli DNA gyrase = target: T1, WT E. coli DNA gyrase (Escherichia coli, UniProt P0AES4+P0AES6); assay: DNA gyrase inhibition assay; assay type: biochemical
T1 construct: purchased Inspiralis Ltd. (Norwich, UK)
Procedure: Gyrase inhibition was determined through biochemical assay kits from Inspiralis Ltd. (Norwich, UK), according to manufacturer’s instructions, and as described previously. Briefly, 1U of enzyme was incubated with 0.5 μg of relaxed […] DNA in the presence of compound in 1% DMSO for 30 min at 37 °C. A control reaction contained no compound but still contained 1% DMSO. The reactions were stopped through Stop Buffer addition and the DNA separated through addition of chloroform/iso-amyl alcohol (24;1). Samples were run on a 1% agarose gel at 75 V for 2 h, which was then stained with 1 μg/mL ethidium bromide and visualized using a NuGenius gel imager (Syngene). The intensity of the supercoiled DNA band was quantified using Syngene software, and the inhibition of the supercoiling of the DNA by the compounds was calculated.

S. agalactiae = assay: MIC (microbroth dilution); assay type: cell-based, Streptococcus agalactiae; settings: for MIC: Streptococcus agalactiae
Procedure: All bacteria were maintained on tryptic soy agar (TSA), except Streptococcus spp., which were maintained on Columbia agar plates containing 5% horse blood. All bacterial assays were carried out in tryptic soy broth (TSB), except for Streptococcus spp. which were grown in cation-adjusted Mueller Hinton broth containing 2.5% lysed horse blood. Bacteria were grown to stationary phase in liquid culture overnight, with shaking at 200 rpm, before being back diluted to the relevant starting concentration for each assay below. MICs were measured by the microbroth dilution method. […] Absorbance at OD600 was read on a CLARIOstar spectrophotometer (BMG Labtech) and the MIC was defined as the minimum concentration of compound where no visible growth was detected. The compounds were prepared as a DMSO stock and equivalent concentrations of DMSO had no effect on bacterial growth. MICs were also performed in the presence of the outer membrane permeator, polymyxin b nonapeptide (PMBN) following the same MIC method but with the following variation. The 2-fold dilution series of compound was prepared as above, then 50 μL of PMBN at a final concentration of 30 μg/mL was added to relevant wells, while 50 μL/well of blank media was added to the remaining wells. Bacteria were then added at 50 μL/well for a starting concentration as above. Thirty μg/mL of PMBN had no effect on bacterial growth. The MICs were read and defined as above. All animal procedures were performed by the contract research organization Pharmacology Discovery Services Taiwan in accordance with the Guide for the Care and Use of Laboratory Animals. The procedures were approved by the Institutional Ethics Committee of Pharmacology Discovery Services Taiwan, Ltd. (approval no. AB127662), in compliance with animal welfare legislation in Taiwan.

[1] = test system: S. aureus SA-1199 WT and SA-1199B; assay: Accumulation assay; assay type: cell-based; settings: SA-1199B compared to SA-1199
Procedure: Minor adjustments were made to the protocol previously described by Geddes and Hergenrother. After centrifugation in oil to remove excess compound, the pellets were dissolved in 200 μL of ultrapure sterile water and subjected to five freeze–thaw cycles. Each cycle consisted of 1 min in a dry ice and ethanol bath, followed by vortexing and 3 min in a heat block at 65 °C. Miles Misra viable counts were used to determine the number of colony-forming units (CFUs) for each replicate. These counts were performed for the 0.55 OD inoculum, postcompound incubation, solvent-only control, and lysates.
A 20 μL sample was injected into an Onyx monolithic C18 column and run using a gradient method. The mobile phase began with 10% acetonitrile and 90% water, with the acetonitrile content increased to 90% over 7 min, maintained for 2 min, and then returned to 10%. The area under the curve was automatically calculated using Agilent ChemStation software to determine the level of accumulation within the bacterial cells. Finally, the data were analyzed using GraphPad Prism 10.4.1. Unpaired t test was conducted to evaluate the statistical significance of the level of efflux in the efflux mutant S. aureus 1199B strain compared to the wild-type S. aureus 1199 strain.

acetylcholinesterase (h) = target: T2, acetylcholinesterase (h) (Homo sapiens, UniProt P22303); assay: SafetyScreen44; assay type: biochemical; settings: enzymatic activity, 1.0E-05 M
T2 construct: purchased Eurofins (SafetyScreen44)
Procedure: as §1

PDE3A (h) = target: T3, PDE3A (h) (Homo sapiens, UniProt Q14432); assay: SafetyScreen44; assay type: biochemical; settings: enzymatic activity, 1.0E-05 M
T3 construct: purchased Eurofins (SafetyScreen44)
Procedure: as §1

Lck kinase (h) = target: T4, Lck kinase (h) (Homo sapiens, UniProt P06239); assay: SafetyScreen44; assay type: biochemical; settings: enzymatic activity, 1.0E-05 M
T4 construct: purchased Eurofins (SafetyScreen44)
Procedure: as §1

COX1(h) = target: T5, COX1(h) (Homo sapiens, UniProt P23219); assay: SafetyScreen44; assay type: biochemical; settings: enzymatic activity, 1.0E-05 M
T5 construct: purchased Eurofins (SafetyScreen44)
Procedure: as §1

COX2(h) = target: T6, COX2(h) (Homo sapiens, UniProt P35354); assay: SafetyScreen44; assay type: biochemical; settings: enzymatic activity, 1.0E-05 M
T6 construct: purchased Eurofins (SafetyScreen44)
Procedure: as §1

PDE4D2 (h) = target: T7, PDE4D2 (h) (Homo sapiens, UniProt Q08499); assay: SafetyScreen44; assay type: biochemical; settings: enzymatic activity, 1.0E-05 M
T7 construct: purchased Eurofins (SafetyScreen44)
Procedure: as §1

[2] = test system: NorA overexpressing strain NCTC 13616; assay: Reserpine growth (efflux inhibition) assay; settings: for AUC of growth curve: biological replicates 1-3; for efflux liability in reserpine assay: 0.5x MIC with vs without reserpine
Procedure: Statistical analyses were performed with GraphPad Prism V9.5.0. […] Unpaired t tests were used when comparing two samples in the gyrase assays.

CYP3A = assay: CYP inhibition; settings: HLM; for inhibition at 10 µM: human, human liver microsomes, CYP3A inhibition
Procedure: as §2

SafetyScreen44 targets = assay: SafetyScreen44 panel, remaining targets; assay type: binding, human; settings: 10 μM
Procedure: as §1

[3] = probe midazolam, midazolam substrate
[4] = probe testosterone, testosterone substrate

CYP2B6, sequence (P20813 whole entry): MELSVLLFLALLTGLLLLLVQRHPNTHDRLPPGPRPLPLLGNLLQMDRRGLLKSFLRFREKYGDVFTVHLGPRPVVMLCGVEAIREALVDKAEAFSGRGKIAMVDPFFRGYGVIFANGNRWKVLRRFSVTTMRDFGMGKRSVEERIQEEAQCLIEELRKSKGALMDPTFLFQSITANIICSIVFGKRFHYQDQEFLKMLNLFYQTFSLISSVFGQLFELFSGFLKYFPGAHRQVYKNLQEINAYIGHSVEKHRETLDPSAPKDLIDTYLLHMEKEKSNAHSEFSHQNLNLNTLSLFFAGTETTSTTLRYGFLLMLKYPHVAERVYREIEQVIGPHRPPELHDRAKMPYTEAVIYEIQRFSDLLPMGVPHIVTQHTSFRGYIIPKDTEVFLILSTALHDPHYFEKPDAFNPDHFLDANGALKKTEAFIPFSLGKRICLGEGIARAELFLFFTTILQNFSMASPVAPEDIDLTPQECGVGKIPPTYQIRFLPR
T5 sequence (P23219 24-599): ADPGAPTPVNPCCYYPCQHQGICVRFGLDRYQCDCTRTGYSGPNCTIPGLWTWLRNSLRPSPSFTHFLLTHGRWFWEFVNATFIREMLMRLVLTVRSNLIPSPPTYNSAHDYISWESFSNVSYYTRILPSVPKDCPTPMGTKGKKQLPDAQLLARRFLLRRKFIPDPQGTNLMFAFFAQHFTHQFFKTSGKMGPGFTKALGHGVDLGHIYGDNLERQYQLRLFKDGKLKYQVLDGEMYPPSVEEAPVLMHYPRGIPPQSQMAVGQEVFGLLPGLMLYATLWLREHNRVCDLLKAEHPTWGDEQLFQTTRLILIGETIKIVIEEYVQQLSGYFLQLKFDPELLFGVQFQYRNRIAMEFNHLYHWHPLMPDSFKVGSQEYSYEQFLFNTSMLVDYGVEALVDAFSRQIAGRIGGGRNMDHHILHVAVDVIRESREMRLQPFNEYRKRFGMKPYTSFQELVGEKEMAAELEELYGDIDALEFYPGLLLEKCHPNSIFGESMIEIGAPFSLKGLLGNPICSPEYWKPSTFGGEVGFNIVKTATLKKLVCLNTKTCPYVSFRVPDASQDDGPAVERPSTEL
T2 sequence (P22303 32-614): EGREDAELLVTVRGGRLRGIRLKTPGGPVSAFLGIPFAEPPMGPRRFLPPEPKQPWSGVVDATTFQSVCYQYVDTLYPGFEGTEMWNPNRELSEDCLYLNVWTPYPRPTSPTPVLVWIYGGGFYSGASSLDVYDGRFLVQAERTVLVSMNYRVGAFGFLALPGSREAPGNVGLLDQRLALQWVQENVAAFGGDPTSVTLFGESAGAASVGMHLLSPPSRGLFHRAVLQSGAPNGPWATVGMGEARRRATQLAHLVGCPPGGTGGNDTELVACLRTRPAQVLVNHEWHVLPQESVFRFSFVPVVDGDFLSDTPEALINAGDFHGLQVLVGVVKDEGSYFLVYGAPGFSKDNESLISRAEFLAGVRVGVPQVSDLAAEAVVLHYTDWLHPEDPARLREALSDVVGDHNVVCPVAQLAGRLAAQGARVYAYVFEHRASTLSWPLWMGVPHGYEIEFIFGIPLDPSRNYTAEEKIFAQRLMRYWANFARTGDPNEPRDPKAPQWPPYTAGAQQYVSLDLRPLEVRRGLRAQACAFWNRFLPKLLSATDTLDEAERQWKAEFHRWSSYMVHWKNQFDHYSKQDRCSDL
T7 sequence (Q08499 303-809): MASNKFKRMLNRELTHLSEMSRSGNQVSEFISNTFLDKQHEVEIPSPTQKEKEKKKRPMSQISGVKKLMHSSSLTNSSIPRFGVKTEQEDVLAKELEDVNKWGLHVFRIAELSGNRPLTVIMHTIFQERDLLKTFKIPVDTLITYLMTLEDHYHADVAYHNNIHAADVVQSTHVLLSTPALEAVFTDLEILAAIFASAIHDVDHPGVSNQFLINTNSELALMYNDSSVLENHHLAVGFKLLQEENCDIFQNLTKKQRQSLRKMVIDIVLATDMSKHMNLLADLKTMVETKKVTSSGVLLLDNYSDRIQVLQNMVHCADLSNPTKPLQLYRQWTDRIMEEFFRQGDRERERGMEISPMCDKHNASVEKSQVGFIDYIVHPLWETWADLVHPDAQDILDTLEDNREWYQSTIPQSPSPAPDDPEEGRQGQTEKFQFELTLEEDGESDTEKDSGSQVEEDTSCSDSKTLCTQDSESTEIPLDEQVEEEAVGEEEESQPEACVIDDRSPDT
T1 sequence (P0AES4 whole entry, one chain of several): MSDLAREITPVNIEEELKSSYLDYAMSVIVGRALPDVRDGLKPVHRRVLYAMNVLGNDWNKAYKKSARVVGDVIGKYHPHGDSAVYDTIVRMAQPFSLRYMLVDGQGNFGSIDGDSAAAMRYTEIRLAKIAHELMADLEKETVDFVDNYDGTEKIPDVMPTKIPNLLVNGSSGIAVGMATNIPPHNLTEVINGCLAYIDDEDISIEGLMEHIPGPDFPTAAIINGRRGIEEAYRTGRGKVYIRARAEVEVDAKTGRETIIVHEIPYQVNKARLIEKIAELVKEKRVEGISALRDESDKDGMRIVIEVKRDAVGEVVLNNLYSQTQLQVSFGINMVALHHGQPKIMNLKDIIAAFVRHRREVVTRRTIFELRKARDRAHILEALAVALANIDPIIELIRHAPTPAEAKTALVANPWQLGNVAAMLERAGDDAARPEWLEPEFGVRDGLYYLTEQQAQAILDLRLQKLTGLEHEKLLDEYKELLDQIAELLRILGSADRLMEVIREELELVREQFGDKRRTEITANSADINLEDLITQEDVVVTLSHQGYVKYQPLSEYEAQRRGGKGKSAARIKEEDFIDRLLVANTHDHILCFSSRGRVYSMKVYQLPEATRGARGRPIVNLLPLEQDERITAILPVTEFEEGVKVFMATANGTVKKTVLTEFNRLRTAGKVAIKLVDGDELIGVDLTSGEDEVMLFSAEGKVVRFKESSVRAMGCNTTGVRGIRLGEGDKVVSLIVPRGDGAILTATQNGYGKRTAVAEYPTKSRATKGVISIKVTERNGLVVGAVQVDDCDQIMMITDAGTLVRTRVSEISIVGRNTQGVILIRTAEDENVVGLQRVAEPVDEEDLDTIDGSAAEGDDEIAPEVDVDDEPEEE
T6 sequence (P35354 18-604): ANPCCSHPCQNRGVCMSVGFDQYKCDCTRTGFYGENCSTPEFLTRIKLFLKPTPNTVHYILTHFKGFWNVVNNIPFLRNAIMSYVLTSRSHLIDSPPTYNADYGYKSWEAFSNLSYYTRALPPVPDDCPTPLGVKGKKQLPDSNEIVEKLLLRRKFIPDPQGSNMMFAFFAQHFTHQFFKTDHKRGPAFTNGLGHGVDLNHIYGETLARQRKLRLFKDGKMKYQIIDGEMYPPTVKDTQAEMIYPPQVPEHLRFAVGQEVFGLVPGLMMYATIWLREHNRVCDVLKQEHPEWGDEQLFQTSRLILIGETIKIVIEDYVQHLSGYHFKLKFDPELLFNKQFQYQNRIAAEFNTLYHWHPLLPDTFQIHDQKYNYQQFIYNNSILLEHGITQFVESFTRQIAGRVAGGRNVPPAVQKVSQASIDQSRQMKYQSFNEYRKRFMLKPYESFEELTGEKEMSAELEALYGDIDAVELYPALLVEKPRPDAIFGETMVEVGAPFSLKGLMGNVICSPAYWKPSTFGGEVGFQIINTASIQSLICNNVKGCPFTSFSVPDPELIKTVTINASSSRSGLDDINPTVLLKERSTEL
T4 sequence (P06239 whole entry): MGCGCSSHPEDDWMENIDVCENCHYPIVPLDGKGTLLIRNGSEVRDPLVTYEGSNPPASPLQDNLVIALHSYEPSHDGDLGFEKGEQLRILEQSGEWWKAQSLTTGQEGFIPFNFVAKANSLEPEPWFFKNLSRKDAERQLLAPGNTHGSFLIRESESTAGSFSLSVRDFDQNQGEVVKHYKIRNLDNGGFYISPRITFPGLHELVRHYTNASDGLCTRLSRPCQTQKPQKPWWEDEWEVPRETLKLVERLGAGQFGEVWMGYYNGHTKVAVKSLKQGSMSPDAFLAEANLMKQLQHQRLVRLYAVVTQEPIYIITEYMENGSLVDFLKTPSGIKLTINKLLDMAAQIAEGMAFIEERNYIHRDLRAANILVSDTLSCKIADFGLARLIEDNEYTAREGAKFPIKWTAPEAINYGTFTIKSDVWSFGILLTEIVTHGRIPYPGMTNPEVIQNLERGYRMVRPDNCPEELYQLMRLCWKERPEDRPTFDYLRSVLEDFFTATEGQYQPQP

| SMILES | % Inhibition (AR (h)) [%] | MIC (S. agalactiae; 8017, read-out: MIC) [µg/mL] | MIC (S. agalactiae; 8183) [µg/mL] | MIC (S. agalactiae; 10069, read-out: MIC) [µg/mL] | MIC (S. agalactiae; 84115) [µg/mL] | level of accumulation [1] | inhibition at 10 µM (PDE4D2 (h)) [%] | AUC of growth curve ([2]; 0.25 MIC + R (reserpine)) | AUC of growth curve ([2]; 0.25 MIC) | AUC of growth curve ([2]; 0.5 MIC + R (reserpine)) | AUC of growth curve ([2]; 0.5 MIC) | efflux liability in reserpine assay [2] | inhibition at 10 µM (CYP3A; [3]) [%] | inhibition at 10 µM (CYP3A; [4]) [%] | inhibition, all other / remaining targets (SafetyScreen44 targets) [%] | other results |
| --- | --- | --- | --- | --- | --- | --- | --- | --- | --- | --- | --- | --- | --- | --- | --- | --- |
| C[C@H]1COc2c(N3CC[C@@H](Nc4ncccn4)C3)c(F)cc3c(=O)c(C(=O)O)cn1c23 [Compound 46, (S)-9-Fluoro-3-methyl-7-oxo-10-((R)-3-(pyrimidin-2-ylamino)pyrrolidin-1-yl)-2,3-dihydro-7H-[1,4]oxazino[2,3,4-ij]quinoline-6-carboxylic acid] | 4.241 | 0.5 (≈ 1.18 µM) | 0.125 (≈ 0.294 µM) | ≤ 0.03 | 0.125 to 0.5 (≈ 0.294 to 1.18 µM) | no significant change in accumulation | 14.8 | 3.991 and 3.857 and 2.348 | 5.243 and 5.279 and 3.696 | 3.930 and 3.864 and 2.013 | 4.798 and 3.349 and 3.713 | minimal shift | 25.2 | 6.5 | < 25 | inhibition at 10 µM (CYP2B6; human, human liver microsomes, probe bupropion, CYP2B6 inhibition): -1.3%; IC50 (WT E. coli DNA gyrase): 682 nM; MIC (S. agalactiae; 6175): 0.125 µg/mL (≈ 0.294 µM); MIC (S. agalactiae; 8181): 0.125 µg/mL (≈ 0.294 µM); MIC (S. agalactiae; 10182): 0.125 µg/mL (≈ 0.294 µM); MIC (S. agalactiae; 11080, read-out: MIC): 0.25 µg/mL (≈ 0.588 µM); MIC (S. agalactiae; 83190): 0.125 µg/mL (≈ 0.294 µM); MIC (S. agalactiae; 83740): 0.125 µg/mL (≈ 0.294 µM); MIC range (S. agalactiae; n = 10): 0.06 to 0.5 µg/mL; % Inhibition (acetylcholinesterase (h)): 32.9861% and 33.0%; % Inhibition (PDE3A (h)): 7.502%; % Inhibition (Lck kinase (h)): -2.891%; % Inhibition (COX1(h)): 30.3185% and 30.3%; % Inhibition (COX2(h)): 8.111% |
| Cc1cc(C)nc(N[C@@H]2CCN(c3c(F)cc4c(=O)c(C(=O)O)cn5c4c3OC[C@@H]5C)C2)n1 [Compound 50, (S)-10-((R)-3-((4,6-Dimethylpyrimidin-2-yl)amino)pyrrolidin-1-yl)-9-fluoro-3-methyl-7-oxo-2,3-dihydro-7H-[1,4]oxazino[2,3,4-ij]quinoline-6-carboxylic acid] | 3.169 | 0.25 (≈ 0.551 µM) | 0.125 (≈ 0.276 µM) | ≤ 0.03 | 0.125 (≈ 0.276 µM) | – | 31.8 | 2.985 and 3.342 and 3.404 | 3.519 and 4.693 and 4.851 | 1.548 and 1.586 and 2.254 | 2.203 and 2.425 and 1.859 | minimal shift | 10.5 | 6.32 | < 25 | CYP2B6 inhibition (CYP2B6; 10 μM): 4.821% and < 10%; MIC (S. agalactiae; 6175, read-out: MIC): 0.06 µg/mL (≈ 0.132 µM); MIC (S. agalactiae; 8181, read-out: MIC): 0.06 µg/mL (≈ 0.132 µM); MIC (S. agalactiae; 10182, read-out: MIC): 0.06 µg/mL (≈ 0.132 µM); MIC (S. agalactiae; 11080): 0.125 µg/mL (≈ 0.276 µM); MIC (S. agalactiae; 83190, read-out: MIC): 0.06 µg/mL (≈ 0.132 µM); MIC (S. agalactiae; 83740, read-out: MIC): 0.06 µg/mL (≈ 0.132 µM); MIC (S. agalactiae; ATCC12386, ATCC 12386): 0.25 µg/mL (≈ 0.551 µM); MIC (S. agalactiae; n = 10, read-out: modal MIC): 0.06 µg/mL (≈ 0.132 µM); inhibition at 10 µM (acetylcholinesterase (h)): 34.2%; inhibition at 10 µM (PDE3A (h)): 12.2%; inhibition at 10 µM (Lck kinase (h)): 2.87%; inhibition at 10 µM (COX1(h)): 15%; inhibition at 10 µM (COX2(h)): 25.9%; CYP3A inhibition (CYP3A; midazolam substrate, 10 μM): 10.5% |
| C[C@H]1COc2c(N3CCN(C)CC3)c(F)cc3c(=O)c(C(=O)O)cn1c23 [Levofloxacin, (S)-9-Fluoro-3-methyl-10-(4-methylpiperazin-1-yl)-7-oxo-2,3-dihydro-7H-[1,4]oxazino[2,3,4-ij]quinoline-6-carboxylic acid, reference compound] | – | – | – | – | – | lower in the NorA-overexpressing SA-1199B strain | – | – | – | – | – | – | – | – | – | IC50 (WT E. coli DNA gyrase; wild-type E. coli DNA gyrase, read-out: IC50 (converted)): 526 nM |
